Legend:
[1] = tested on: patients with Alzheimer's disease; experiment: AZ310866 Phase 2b study, ADAS-Cog score vs placebo; type: in vivo, human
Experimental: (§1) The 35 mg dose was evaluated in four Phase 2 trials and is the dose being evaluated in a Phase 3 pivotal study. In the AZ310866 Phase 2b study, there was a dose dependent increase in efficacy vs placebo in the ADAS-Cog score between 15 mg (−0.7 units) and 35 mg (−1.7 units). […] These benefits need to be balanced with the potential for adverse events, in particular, the CNS toxicity observed in dogs and rabbits described below. […] In the 26-week dog study, one high-dose dog had seizures on Day 55 and was euthanized. A second dog had seizures on Day 59 and survived. For the second dog, plasma samples taken approximately 5 minutes and two hours after the seizure (4 and 6 hours post dose on Day 59) had SB742457 concentrations of 1570 and 1440 ng/mL, respectively. […] In study SB742457/005, elderly subjects received 35 mg once daily of 3-phenylsulfonyl-8-piperazinyl-1yl-quinoline for 28 days. […] This mean value is approximately ¼th the Cmax value observed in dogs with seizures. The maximum concentration that may be achieved is approximately ½ the Cmax value observed in the 2 dogs with seizures. […]

[2] = rat maximal electroshock seizure threshold test; details: in vivo, exposure at which seizure threshold was not decreased, read-out: extrapolated Cmax
Experimental: as §1

[3] = tested on: rabbits; experiment: nonclinical studies, seizures in rabbits; type: in vivo
Experimental: as §1

[4] = in vivo; details: dog
Experimental: (§2) The 35 mg dose was evaluated in four Phase 2 trials and is the dose being evaluated in a Phase 3 pivotal study. In the AZ310866 Phase 2b study, there was a dose dependent increase in efficacy vs placebo in the ADAS-Cog score between 15 mg (−0.7 units) and 35 mg (−1.7 units). […] These benefits need to be balanced with the potential for adverse events, in particular, the CNS toxicity observed in dogs and rabbits described below. […] In the 26-week dog study, one high-dose dog had seizures on Day 55 and was euthanized. A second dog had seizures on Day 59 and survived. For the second dog, plasma samples taken approximately 5 minutes and two hours after the seizure (4 and 6 hours post dose on Day 59) had SB742457 concentrations of 1570 and 1440 ng/mL, respectively. […] In study SB742457/005, elderly subjects received 35 mg once daily of 3-phenylsulfonyl-8-piperazinyl-1yl-quinoline for 28 days. […] This mean value is approximately ¼th the Cmax value observed in dogs with seizures. The maximum concentration that may be achieved is approximately ½ the Cmax value observed in the 2 dogs with seizures. To further understand the risk to humans, SimCYP population PBPK modelling was used to predict brain concentrations of 3-phenylsulfonyl-8-piperazinyl-1yl-quinoline in dogs exposed to the concentrations linked with seizures, and to compare these with predicted human brain concentrations at the clinical dose of 35 mg. The simulations predicted that the human steady-state brain concentrations following repeat administration with 35 mg would be approximately 40-fold lower than the brain concentrations associated with seizures in dogs. Assuming linear pharmacokinetics, the human steady-state brain concentrations with 70 mg would be approximately 20-fold lower than the brain concentrations associated with convulsions in dogs. […] Furthermore, in Phase 2 studies encompassing 1024 patients with Alzheimer's disease at doses of 5 mg to 35 mg per day, two subjects reported seizures, both in the Phase 2b study with 3-phenylsulfonyl-8-piperazinyl-1yl-quinolone administered as adjunctive therapy to donepezil. One subject was in the placebo group and one in the 15 mg 3-phenylsulfonyl-8-piperazinyl-1yl-quinoline group. The subject receiving 3-phenylsulfonyl-8-piperazinyl-1yl-quinoline was hospitalized with a suspicion of a TIA and experienced a seizure, which was reported by the PI as not attributable to study drug.

[5] = tested on: dogs; experiment: in vivo; details: dog
Experimental: as §2

[6] = tested on: mice; experiment: nonclinical studies, seizures in mice; type: in vivo
[7] = tested on: rats; experiment: nonclinical studies, seizures in rats; type: in vivo
[8] = study SB742457/005, pharmacokinetics in elderly subjects; type: in vivo, human; details: for Cmax: human, plasma
Experimental: as §2

[9] = tested on: healthy subjects; experiment: clinical studies with healthy subjects (n=225), seizures; type: in vivo; details: single doses of up to 175 mg and repeat doses of up to 50 mg for 13 days
Experimental: as §1

[10] = tested on: patients with Alzheimer's disease; experiment: Phase 2 studies in 1024 patients with Alzheimer's disease, seizures; type: in vivo; details: 15 mg group, Phase 2b study, adjunctive therapy to donepezil; reported as not attributable to study drug
Experimental: as §1

[11] = clinical; details: human, in vivo
[12] = tested on: healthy rat brain glucose utilization; experiment: FDG-PET/CT brain glucose utilization in healthy rats; type: in vivo; details: healthy young CD rats, 10 mg/kg or 20 mg/kg 3 h prior to FDG; pairwise comparisons did not reach statistical significance
From the text: 3-phenylsulfonyl-8-piperazinyl-1yl-quinoline is a potent antagonist of the 5-hydroxytryptamine 6 (5-HT6) serotonin receptor. Reduced glucose utilization is an early sign of decreasing brain function in AD. Altered neuronal glucose uptake assessed by flurodeoxyglucose-positron emission tomography (FDG-PET) may be useful as a diagnostic foundation for identifying patients with AD. This study evaluates 3-phenylsulfonyl-8-piperazinyl-1yl-quinoline at clinically relevant doses on healthy rat brain glucose utilization using FDG-PET/CT.
Methods: Healthy, young CD rats were pre-dosed with vehicle (1% methylcellulose, w/v) or RVT-101 (10 mg/kg or 20 mg/kg) 3 h prior to FDG (18.1±3.5 MBq, i.v.). Brain FDG standard uptake values (SUV) were quantified using scanning in single 20 min list mode (BioPET/CT, Sedecal) starting 30 min post FDG dosing. PET/CT scans were analyzed as a single time frame summarizing counts over 20 min. All experiments were completed in an accredited facility according to NIH guidelines. PET/CT imaging data were analyzed using Student's t-test, cluster analysis, and multivariate analysis of variance (MANOVA) using a subset of SUV from 5 cluster-identified regions.

With O=S(=O)(c1ccccc1)c1cnc2c(N3CCNCC3)cccc2c1 [3-phenylsulfonyl-8-piperazinyl-1yl-quinoline] the “increase in efficacy vs placebo in the ADAS-Cog score” value ([1]; 15 mg) was −0.7 units, the “increase in efficacy vs placebo in the ADAS-Cog score” value ([1]; 35 mg) was −1.7 units and the Cmax [2] was 1890 ng/mL. The seizures ([3]; nonclinical studies) was “caused seizures”, the seizures ([3]; single dose at 300 mg/kg, exceeded the maximum tolerated repeat-dose level) was “seizures were produced” and the Cmax [4] was 1700 ng/mL. For the same compound, the concentration at 4 h post dose on Day 59 [4] was 1570 ng/mL, the concentration at 6 h post dose on Day 59 [4] was 1440 ng/mL and the “plasma concentration associated with an increased seizure risk” value [5] was greater than 1570 ng/mL. For the same compound, the plasma concentrations achieved [5] was “up to 1937 ng/mL”, the seizures ([5]; 7.5 mg/kg/day) was “did not occur” and the seizures [6] was “not in rodents”. For the same compound, the seizures [7] was “not in rodents”, the Cmax ([8]; both sexes, 35 mg, elderly subjects, 35 mg once daily for 28 days, read-out: highest recorded Cmax) was 307 ng/mL and the Cmax ([8]; female, 35 mg, elderly females, 35 mg once daily for 28 days, read-out: mean Cmax) was 177 ng/mL. For the same compound, the “expected maximum concentration at 70 mg relative to the Cmax observed in the 2 dogs with seizures” value ([8]; human 70 mg vs dog) was “approximately ½”, the “expected mean Cmax at 70 mg relative to the Cmax observed in dogs with seizures” value ([8]; human 70 mg vs dog) was “approximately ¼” and the Cmax ([8]; oral, 70 mg, multiple dosing with 70 mg, extrapolated given linear human pharmacokinetics, read-out: expected maximum Cmax) was 714 ng/mL. The Cmax ([8]; oral, 70 mg, multiple dosing with 70 mg, extrapolated given linear human pharmacokinetics, read-out: expected mean Cmax) was roughly 360 ng/mL, the Cmax ([8]; male, 35 mg, elderly males, 35 mg once daily for 28 days, read-out: mean Cmax) was 181 ng/mL and the seizures [9] was “no seizures were observed”. For the same compound, the subjects reporting seizures [10] was “one”, the AUC [11] was roughly 3200 ng·h/mL and the AUC(0-inf) [11] was roughly 9250 ng·h/mL. The Cmax ([11]; Cmax) was roughly 293 ng/mL, the Cmax ([11]; mean Cmax) was roughly 180 ng/mL and the “brain glucose uptake (FDG SUV)” value [12] was “trend of increased glucose uptake”.

Source: patent US20160324852A1, “COMPOSITIONS AND METHODS OF TREATING A NEURODEGENERATIVE DISEASE” (Axovant Sciences Ltd., priority 2015, published 2016)
